Where a SMILES comes first, the peptide text is derived from it. Bridges are numbered along the chain shown (N, C = ends). [ ]: non-standard residue; d: D form. The star is where a group is joined. ξ: configuration not given here. dPhe(4-CONH2) = NC(=O)c1ccc(C[C@@H](N)C(=O)O)cc1; Phe(4-Cl) = N[C@@H](Cc1ccc(Cl)cc1)C(=O)O; ξPhe(4-Cl) = NC(Cc1ccc(Cl)cc1)C(=O)O; Lys(Me2) = CN(C)CCCC[C@H](N)C(=O)O; dCit = NC(=O)NCCC[C@@H](N)C(=O)O; Lys(Me) = CNCCCC[C@H](N)C(=O)O; Tle = CC(C)(C)[C@H](N)C(=O)O; Nicotinoyl = O=C(c1cccnc1)*; ξY = NC(Cc1ccc(O)cc1)C(=O)O; ξF = NC(Cc1ccccc1)C(=O)O

The experiment deals with somatostatin type 2 (SSTR2) receptors (Homo sapiens, UniProt P30874). As to the kind of experiment: PathHunter β-Arrestin assay, antagonist mode, SSTR2. As to conditions: agonist challenge at EC80. The experiment is classed as cell-based. On the procedure:
The PathHunter® β-Arrestin assay monitors the activation of a GPCR in a homogenous, non-imaging assay format using a technology developed by DiscoveRx called Enzyme Fragment Complementation (EFC) with β-galactosidase (β-Gal) as the functional reporter. […] EA is fused to β-Arrestin and […] is fused to the GPCR of interest. When the GPCR is activated and β-Arrestin is recruited to the receptor, ED and EA complementation occurs, restoring β-Gal activity which is measured using chemiluminescent PathHunter® Detection Reagents. For antagonist determination, cells were pre-incubated with the compounds followed by agonist challenge at the EC80 concentration. Data was normalized to the maximal and minimal response observed in the presence of EC80 ligand and vehicle. Compound activity was analyzed using CBIS data analysis suite ChemInnovation, CA). Percentage inhibition was calculated using the following formula: % Inhibition=100%×(1−(mean signal of test sample-mean signal of vehicle control)/(mean signal of EC80 control-mean signal of vehicle control)). Percentage inhibition was calculated at 10 concentrations in steps on a Log 3 scale ranging from […] to 5e-5 μM. The results were plotted for IC50 calculation.

somatostatin type 2 (SSTR2) receptors, sequence (P30874 whole entry, the tested form may be a part): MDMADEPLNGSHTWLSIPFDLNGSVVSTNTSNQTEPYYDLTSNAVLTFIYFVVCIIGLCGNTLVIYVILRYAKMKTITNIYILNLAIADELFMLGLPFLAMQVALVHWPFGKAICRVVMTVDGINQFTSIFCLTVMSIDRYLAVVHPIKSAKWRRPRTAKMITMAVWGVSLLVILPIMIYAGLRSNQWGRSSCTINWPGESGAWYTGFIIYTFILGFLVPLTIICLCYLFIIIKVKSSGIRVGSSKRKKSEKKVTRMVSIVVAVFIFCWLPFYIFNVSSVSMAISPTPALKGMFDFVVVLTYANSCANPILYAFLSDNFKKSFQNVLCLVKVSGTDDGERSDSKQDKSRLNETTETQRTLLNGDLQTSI

The term IC50 denotes the point on the concentration scale where inhibition reaches its midpoint. Consider `CNCCCC[C@@H]1NC(=O)[C@@H](CCCCNC(=O)c2cccnc2)NC(=O)[C@H](Cc2ccc(O)cc2)NC(=O)[C@H](NC(=O)[C@@H](N)Cc2ccc(Cl)cc2)CSSC[C@@H](C(=O)NC(Cc2ccc(O)cc2)C(N)=O)NC(=O)[C@H]([C@@H](C)O)NC1=O` (stereo partly drawn) [Compound 30, H-Cpa-cyclo[D-Cys-Tyr-D-Lys(N^ε-nicotinoyl)-Lys(N^ε-Me)-Thr-Cys]-D-Tyr-NH2] (H-[Phe(4-Cl)][dC]Y[dK](Nicotinoyl)[Lys(Me)]TC[ξY]-NH2; disulfide 2-7), for which the IC50 worked out at 177 nM. That is a sub-micromolar value.

`CNCCCC[C@@H]1NC(=O)[C@@H](CCCNC(N)=O)NC(=O)[C@H](Cc2ccc(O)cc2)NC(=O)[C@H](NC(=O)[C@@H](N)Cc2ccc(Cl)cc2)CSSC[C@@H](C(=O)N[C@H](Cc2ccc(O)cc2)C(N)=O)NC(=O)[C@H]([C@@H](C)O)NC1=O` [Compound 31, H-Cpa-cyclo[DCys- Tyr-D-Cit- (N—Me)Lys-Thr- Cys]-DTyr-NH2] (H-[Phe(4-Cl)][dC]Y[dCit][Lys(Me)]TC[dY]-NH2; disulfide 2-7): the IC50 stood at 70.4 nM.

Consider `C[C@@H](O)[C@@H]1NC(=O)[C@H](CCCCN(C)C)NC(=O)[C@@H](Cc2ccc(C(N)=O)cc2)NC(=O)[C@H](Cc2ccc(O)cc2)NC(=O)[C@H](NC(=O)[C@@H](N)Cc2ccc(Cl)cc2)CSSC[C@@H](C(=O)NC(Cc2ccc(O)cc2)C(N)=O)NC1=O` (stereo partly drawn) [Compound 32, H-Cpa-cyclo[D-Cys-Tyr-D-Phe(4-carbamoyl)-Lys(N^ε-diMe)-Thr-Cys]-D-Tyr-NH2] (H-[Phe(4-Cl)][dC]Y[dPhe(4-CONH2)][Lys(Me2)]TC[ξY]-NH2; disulfide 2-7), for which the IC50 came to 2.46 nM.

Molecule `CC(C)[C@@H]1NC(=O)[C@H](CCCCN)NC(=O)[C@@H](Cc2ccc(C(N)=O)cc2)NC(=O)[C@H](Cc2ccc(O)cc2)NC(=O)[C@H](NC(=O)[C@@H](N)Cc2ccc(Cl)cc2)CSSC[C@@H](C(=O)NC(Cc2ccc(O)cc2)C(N)=O)NC1=O` (stereo partly drawn) [Compound 33, H-Cpa-cyclo[DCys- Tyr-D-4- (carbamoyl)Phe-Lys- Val-Cys]-DTyr-NH2] (H-[Phe(4-Cl)][dC]Y[dPhe(4-CONH2)]KVC[ξY]-NH2; disulfide 2-7) registered an IC50 of 56 nM. Compared with the last molecule, the IC50 is about 23-fold higher.

With `CC(C)(C)[C@@H]1NC(=O)[C@H](CCCCN)NC(=O)[C@@H](Cc2ccc(C(N)=O)cc2)NC(=O)[C@H](Cc2ccc(O)cc2)NC(=O)[C@H](NC(=O)[C@@H](N)Cc2ccc(Cl)cc2)CSSC[C@@H](C(=O)NC(Cc2ccc(O)cc2)C(N)=O)NC1=O` (stereo partly drawn) [Compound 34, H-Cpa-cyclo[DCys- Tyr-D-4- (carbamoyl)Phe-Lys- tBu-Gly-Cys]-DTyr- NH2] (H-[Phe(4-Cl)][dC]Y[dPhe(4-CONH2)]K[Tle]C[ξY]-NH2; disulfide 2-7), the IC50 worked out at 43.4 nM.

The molecule `C[C@@H](O)[C@@H]1NC(=O)[C@H](CCCCN)NC(=O)[C@@H](Cc2ccc(C(N)=O)cc2)NC(=O)[C@H](Cc2ccccc2)NC(=O)[C@H](NC(=O)[C@@H](N)Cc2ccc(Cl)cc2)CSSC[C@@H](C(=O)NC(Cc2ccc(O)cc2)C(N)=O)NC1=O` (stereo partly drawn) [Compound 35, H-Cpa-cyclo[DCys- Phe-D-(4- carbamoyl)Phe-Lys- Thr-Cys]-DTyr-NH2] (H-[Phe(4-Cl)][dC]F[dPhe(4-CONH2)]KTC[ξY]-NH2; disulfide 2-7) showed an IC50 of 35.9 nM.

Molecule `C[C@@H](O)[C@@H]1NC(=O)[C@H](CCCCN)NC(=O)[C@@H](Cc2ccc(C(N)=O)cc2)NC(=O)[C@H](Cc2ccc(Cl)cc2)NC(=O)[C@H](NC(=O)[C@@H](N)Cc2ccc(Cl)cc2)CSSC[C@@H](C(=O)NC(Cc2ccc(O)cc2)C(N)=O)NC1=O` (stereo partly drawn) [Compound 36, H-Cpa-cyclo[DCys- Cpa-D-(4- carbamoyl)Phe-Lys- Thr-Cys]-DTyr-NH2] (H-[Phe(4-Cl)][dC][Phe(4-Cl)][dPhe(4-CONH2)]KTC[ξY]-NH2; disulfide 2-7) gave an IC50 of 28.7 nM.

Regarding `NCCCC[C@@H]1NC(=O)[C@@H](Cc2ccc(C(N)=O)cc2)NC(=O)[C@H](Cc2ccc(O)cc2)NC(=O)[C@H](NC(=O)[C@@H](N)Cc2ccc(Cl)cc2)CSSC[C@@H](C(=O)NC(Cc2ccc(O)cc2)C(N)=O)NC(=O)[C@H](CO)NC1=O` (stereo partly drawn) [Compound 37, H-Cpa-cyclo[DCys- Tyr-D-(4- carbamoyl)Phe-Lys- Ser-Cys]-DTyr-NH2] (H-[Phe(4-Cl)][dC]Y[dPhe(4-CONH2)]KSC[ξY]-NH2; disulfide 2-7), the IC50 stood at 10.6 nM.

`COc1ccc(C[C@@H]2NC(=O)[C@H](NC(=O)[C@@H](N)Cc3ccc(Cl)cc3)CSSC[C@@H](C(=O)NC(Cc3ccc(O)cc3)C(N)=O)NC(=O)[C@H]([C@@H](C)O)NC(=O)[C@H](CCCCN)NC(=O)[C@@H](Cc3ccc(C(N)=O)cc3)NC2=O)cc1` (stereo partly drawn) [Compound 38, H-Cpa-cyclo[DCys- 4-OMe-Phe-D-(4- carbamoyl)Phe-Lys- Thr-Cys]-DTyr-NH2] (H-[Phe(4-Cl)][dC]Y(Me)[dPhe(4-CONH2)]KTC[ξY]-NH2; disulfide 2-7): the IC50 is 24.4 nM. Against the preceding molecule, the IC50 is about 2.3-fold higher.

The molecule `C[C@@H](O)[C@@H]1NC(=O)[C@H](CCCCN)NC(=O)[C@@H](Cc2ccc(C(N)=O)cc2)NC(=O)[C@H](Cc2ccc(O)cc2)NC(=O)[C@H](NC(=O)[C@@H](N)Cc2ccc(Cl)cc2)CSSC[C@@H](C(=O)NC(Cc2ccccc2)C(N)=O)NC1=O` (stereo partly drawn) [Compound 40, H-Cpa-cyclo[DCys- Tyr-D-(4- carbamoyl)Phe-Lys- Thr-Cys]-DPhe-NH2] (H-[Phe(4-Cl)][dC]Y[dPhe(4-CONH2)]KTC[ξF]-NH2; disulfide 2-7) gave an IC50 of 16.2 nM.

`C[C@@H](O)[C@@H]1NC(=O)[C@H](CCCCN)NC(=O)[C@@H](Cc2ccc(C(N)=O)cc2)NC(=O)[C@H](Cc2ccccc2)NC(=O)[C@H](NC(=O)[C@@H](N)Cc2ccc(Cl)cc2)CSSC[C@@H](C(=O)NC(Cc2ccccc2)C(N)=O)NC1=O` (stereo partly drawn) [Compound 41, H-Cpa-cyclo[DCys- Phe-D-(4- carbamoyl)Phe-Lys- Thr-Cys]-DPhe-NH2] (H-[Phe(4-Cl)][dC]F[dPhe(4-CONH2)]KTC[ξF]-NH2; disulfide 2-7) registered an IC50 of 24.4 nM. Against the preceding molecule, the IC50 is about 1.5-fold higher.

As for `C[C@@H](O)[C@@H]1NC(=O)[C@H](CCCCN)NC(=O)[C@@H](Cc2ccc(C(N)=O)cc2)NC(=O)[C@H](Cc2ccc(O)cc2)NC(=O)[C@H](NC(=O)[C@@H](N)Cc2ccc(Cl)cc2)CSSC[C@@H](C(=O)NC(Cc2ccc(Cl)cc2)C(N)=O)NC1=O` (stereo partly drawn) [Compound 42, H-Cpa-cyclo[DCys- Tyr-D-(4- carbamoyl)Phe- Lys-Thr-Cys]- 4-Cl-D-Phe-NH2] (H-[Phe(4-Cl)][dC]Y[dPhe(4-CONH2)]KTC[ξPhe(4-Cl)]-NH2; disulfide 2-7), the concentration for half-maximal inhibition (IC50) was determined as 9.84 nM.

`C[C@@H](O)[C@@H]1NC(=O)[C@H](CCCCN)NC(=O)[C@@H](Cc2ccc(C(N)=O)cc2)NC(=O)[C@H](Cc2ccc(Cl)cc2)NC(=O)[C@H](NC(=O)[C@@H](N)Cc2ccc(Cl)cc2)CSSC[C@@H](C(=O)NC(Cc2ccc(Cl)cc2)C(N)=O)NC1=O` (stereo partly drawn) [Compound 43, H-Cpa-cyclo[DCys- 4-Cl-Phe-D-(4- carbamoyl)Phe-Lys- Thr-Cys]-4-Cl-D- Phe-NH2] (H-[Phe(4-Cl)][dC][Phe(4-Cl)][dPhe(4-CONH2)]KTC[ξPhe(4-Cl)]-NH2; disulfide 2-7) returned an IC50 of 25.6 nM. This IC50 is about 2.6-fold higher than that of the molecule before.

`COc1ccc(CC(NC(=O)[C@@H]2CSSC[C@@H](NC(=O)[C@@H](N)Cc3ccc(Cl)cc3)C(=O)N[C@@H](Cc3ccc(O)cc3)C(=O)N[C@H](Cc3ccc(C(N)=O)cc3)C(=O)N[C@@H](CCCCN)C(=O)N[C@@H]([C@@H](C)O)C(=O)N2)C(N)=O)cc1` (stereo partly drawn) [Compound 44, H-Cpa-cyclo[DCys- Tyr-D-(4- carbamoyl)Phe-Lys- Thr-Cys]-4-OMe-D- Phe-NH2] (H-[Phe(4-Cl)][dC]Y[dPhe(4-CONH2)]KTC[ξY](Me)-NH2; disulfide 2-7) had an IC50 of 10.7 nM.

As to `COc1ccc(CC(NC(=O)[C@@H]2CSSC[C@@H](NC(=O)[C@@H](N)Cc3ccc(Cl)cc3)C(=O)N[C@@H](Cc3ccc(OC)cc3)C(=O)N[C@H](Cc3ccc(C(N)=O)cc3)C(=O)N[C@@H](CCCCN)C(=O)N[C@@H]([C@@H](C)O)C(=O)N2)C(N)=O)cc1` (stereo partly drawn) [Compound 45, H-Cpa-cyclo[DCys- 4-OMe-Phe-D-(4- carbamoyl)Phe-Lys- Thr-Cys]-4-OMe-D- Phe-NH2] (H-[Phe(4-Cl)][dC]Y(Me)[dPhe(4-CONH2)]KTC[ξY](Me)-NH2; disulfide 2-7), the IC50 came out at 14.6 nM.

Regarding `CNCCCC[C@@H]1NC(=O)[C@@H](Cc2ccc(C(N)=O)cc2)NC(=O)[C@H](Cc2ccc(O)cc2)NC(=O)[C@H](NC(=O)[C@@H](N)Cc2ccc(Cl)cc2)CSSC[C@@H](C(=O)NC(Cc2ccc(Cl)cc2)C(N)=O)NC(=O)[C@H]([C@@H](C)O)NC1=O` (stereo partly drawn) [Compound 46, H-Cpa-cyclo[D-Cys-Tyr-D-Phe(4-carbamoyl)-Lys(N^ε-Me)-Thr-Cys]-D-Cpa-NH2] (H-[Phe(4-Cl)][dC]Y[dPhe(4-CONH2)][Lys(Me)]TC[ξPhe(4-Cl)]-NH2; disulfide 2-7), the IC50 was 0.398 nM.

Molecule `CNCCCC[C@@H]1NC(=O)[C@@H](Cc2ccc(C(N)=O)cc2)NC(=O)[C@H](Cc2ccc(Cl)cc2)NC(=O)[C@H](NC(=O)[C@@H](N)Cc2ccc(Cl)cc2)CSSC[C@@H](C(=O)NC(Cc2ccc(Cl)cc2)C(N)=O)NC(=O)[C@H]([C@@H](C)O)NC1=O` (stereo partly drawn) [Compound 47, H-Cpa-cyclo[D-Cys-Cpa-D-Phe(4-carbamoyl)-Lys(N^ε-Me)-Thr-Cys]-D-Cpa-NH2] (H-[Phe(4-Cl)][dC][Phe(4-Cl)][dPhe(4-CONH2)][Lys(Me)]TC[ξPhe(4-Cl)]-NH2; disulfide 2-7) registered an IC50 of 1.51 nM.

For the origin of these results see patent US12486302B2, “Somatostatin receptor antagonist compounds and methods of using the same” (CDRD VENTURES INC., priority 2016, dated 2025).
